Results on 1 molecule are retold here after patent US20150025031A1, “METABOLIC DOWNREGULATION FOR CELL SURVIVAL” (WAKE FOREST UNIVERSITY HEALTH SCIENCES, priority 2012, published 2015).

Data set [1] has as its system C2C12 cells, murine myoblasts. The data set can be described thus: MTS metabolic activity of C2C12 cells under hypoxia with adenosine (Example 1). It counts as cell-based. The protocol: Another group receiving daily doses of adenosine ([…], achieved by serial dilution) was incubated for up to 7 days under hypoxia and then placed back into normoxic conditions without additional supply of adenosine. Adenosine was refreshed by the daily exchange of media in which adenosine was completely dissolved. Media to be used under hypoxia was placed in the hypoxic chamber 24 hr prior to use for deoxygenation down to 2% O2. The metabolic activity of viable cells at each pre-determined time point was assessed using an MTS assay, which measures mitochondrial activity of cells.

The target of data set [2] is T1, adenosine deaminase (ADA) (Homo sapiens, UniProt P00813).
T1 construct: purchased Sigma
T1 sequence (P00813 1-363): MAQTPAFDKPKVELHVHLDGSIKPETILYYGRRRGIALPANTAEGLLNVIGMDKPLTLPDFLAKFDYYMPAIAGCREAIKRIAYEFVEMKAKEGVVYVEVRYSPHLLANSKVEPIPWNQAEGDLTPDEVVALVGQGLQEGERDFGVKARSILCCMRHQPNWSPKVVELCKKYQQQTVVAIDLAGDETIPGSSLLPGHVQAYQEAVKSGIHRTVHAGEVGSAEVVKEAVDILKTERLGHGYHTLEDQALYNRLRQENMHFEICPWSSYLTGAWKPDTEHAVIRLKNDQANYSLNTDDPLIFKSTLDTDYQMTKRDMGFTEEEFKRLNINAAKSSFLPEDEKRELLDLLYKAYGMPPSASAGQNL
The data set can be described thus: Cell viability with adenosine derivatives in presence or absence of ADA, normoxic conditions (Example 2). The format is cell-based. The settings on record: presence of ADA. The protocol: Three known ADA inhibitors were examined to evaluate the efficacies of adenosine derivatives: cladribine, pentostatin, and fludarabine phosphate. They have similar structures and molecular weights compared to adenosine, but different functional groups in the structures. Metabolic rate of cells were indirectly analyzed by cell viability in the presence or absence of adenosine derivatives and ADA in various doses. Cell viability with the drugs was evaluated under normoxic conditions.
Adenosine (Sigma-Aldrich), cladribine (Sigma, 2-Chloro-2′-deoxyadenosine), pentostatin (Tocris biosciences), and fludarabine phosphate (LGM Pharma) were used throughout this study.

The test system of data set [3] is C2C12 cells. Description: MTS metabolic activity per cell, C2C12 under 0.1% hypoxia. The format is cell-based, murine. The settings on record: 5 mM adenosine. The protocol: (§1) Hypoxic condition was maintained with a gas mixture containing 0.1% O2, 5% CO2 and 94.9% N2 at 37° C. and full humidity in an X-Vivo System (Biospherix). […] The hypoxic groups were then placed to the hypoxic chamber and incubated up to day 11, whereas the normoxic group continued to be incubated in the regular incubator. No medium change was made on both normoxic and hypoxic groups up to day 11. After transfer to normoxic conditions, cells were cultured in the regular incubator with an exchange of no adenosine-containing, fresh medium every third day.
Mitochondrial metabolic activity of viable cells was assessed using a 3-(4,5-dimethylthiazol-2-yl)-5-(3-carboxymethoxyphenyl)-2-(4-sulfophenyl)-2H-tetrazolium (MTS) assay (Promega). Cells were rinsed with PBS three times followed by the addition of 120 μL of MTS reagent to each well. After an hour of incubation, optical density (OD) of a brown formazan product by dehydrogenase enzymes in metabolically active cells was measured with a microplate reader at 490 nm. The mean OD value obtained from media blanks was standardized as […]. For some analyses, metabolic activity measured at each time point was normalized by the cell number obtained from PicoGreen assay as previously described. The total metabolic activity represented by the area under the curve over time was computed using Origin Pro v. 8 (Origin Lab Corporation).

Data set [4] has as its system C2C12 cells. The data set can be described thus: Intracellular ATP level of C2C12 cells under hypoxia. It counts as cell-based, murine. Conditions: 5 mM adenosine. The protocol:
as §1
Intracellular ATP was measured by using the ATP Bioluminescence Assay Kit HS II (Roche Applied Science). Cells were lysed with 50 μL of lysis buffer and transferred into a well, then 50 μl of luciferase reagent was added to it. After mixing, the light emitted was measured and integrated for 10 seconds by using a SpectraMax M5 luminometer (Molecular Devices). The blank value (from a well containing no ATP) was subtracted from each sample's raw data. ATP concentrations were calculated from the linear part of the standard curve prepared with serial dilutions of a known concentration of ATP and expressed as moles per cell. This, in turn, was re-calculated to a percent ATP of that expressed in the cells grown under normoxic condition.

Data set [5] relates to Soleus muscle tissues. The data set can be described thus: Survival of soleus muscle tissue under hypoxia (H&E, EthD-1 dead assay). Conditions: 5 mM adenosine, 10 days hypoxic culture. It counts as cell-based, Sprague Dawley rats. The protocol:
Soleus muscle tissues dissected immediately after sacrifice of Sprague Dawley rats (17 weeks old, 380-400 g, Harlan) were assigned to one of three groups in the growth medium: (1) native tissue group (2) no adenosine-treated hypoxic group and (3) hypoxic group with 5 mM adenosine supplemented in 2 mL of medium. The media was changed every third day. At day 10, a half of the tissue sample was fixed in 10% neutral buffered formalin (Sigma-Aldrich), 6 μm sections were generated by a cryotome (Leica), and stained with hematoxyline and eosin (H&E). Microscopic analysis was performed using a light microscope (Zeiss). Dead assay was assessed on the remaining tissues using 4 μM ethidium homodimer-1 (EthD-1, Invitrogen) to stain dead cells with damaged cell membranes. The stained sections were observed using a fluorescent microscope (Leica). The number of dead cells was quantitated using the “analyze particle” method with Image J software (U.S. National Institute of Health) on the fluorescence images, and its percentage was calculated based on the number of DAPI-stained cells on each section.

For data set [6], the system named is C2C12 mouse myoblasts. The settings on record: 5 mM.
Data set [7] concerns C2C12 mouse myoblasts. The settings on record: 5 mM; for cellular metabolism under hypoxia: MTS.

Molecules are shown by their SMILES. Where two headings read alike, the source gives them in different places.

For the molecule `Nc1ncnc2c1ncn2[C@@H]1O[C@H](CO)[C@@H](O)[C@H]1O` [adenosine], the “restoration of normal proliferation rate after long-term exposure” value in data set [1] (22 days under adenosine, various doses) was “still demonstrated the ability to restore its normal proliferation rate”. Also, the “cellular (metabolic) activity under hypoxic conditions” value in data set [1] (C2C12, 0.1% O2, daily adenosine up to 7 days, MTS) is on record as “maintained a steady state of cellular activity”. For the same molecule, in data set [1] (C2C12, 0.1% O2 hypoxia, MTS metabolic activity), the “minimum effective concentration of adenosine” value is on record as “about 1 mM”. The “resumption of normal metabolic activity after adenosine removal” value in data set [1] (adenosine removed at day 7, back to normoxia) is reported as “resumed their normal metabolic activity two days after adenosine was removed at day 7”. For the same molecule, the “conversion by ADA / stability towards adenosine degrading enzymes” value in data set [2] is on record as “lost its activity in presence of ADA”. Besides, in data set [3] (0.1% hypoxia, MTS per cell), the “metabolic activity in early hypoxic phase” value was “suppressed initially up to day 5”. The “metabolic activity maintained, of the initial metabolic activity” value in data set [3] (0.1% hypoxia, day 11, MTS per cell) was “approximately 68%”. Moreover, the “metabolic activity after transfer to normoxic conditions” value in data set [3] (after 11 days hypoxia) is listed as “restored to a level equivalent to that in normoxic cells”. For the same molecule, in data set [4] (0.1% hypoxia, day 11), the “intracellular ATP level, percentage of that in normoxic cells” value came out at 18%. Further, the “intracellular ATP level vs control cells” value in data set [4] (throughout the hypoxic duration, p<0.05) was “consistently higher ATP level”. For the same molecule, in data set [5], the “degree of muscle damage (H&E)” value was “tissues cultured without adenosine showed more damage than those treated with 5 mM adenosine”. In addition, the “dead cells as percentage of number of DAPI-stained cells” value in data set [5] (EthD-1) is on record as 46%. In addition, the “proliferation after drug and hypoxia removed” value is “failed to revive after the hypoxia and drug was removed” in data set [6] (treated with ADA); “started to regain their normal proliferation” in data set [6] (used alone (no ADA)). Also, the “cell population under hypoxic condition” value in data set [6] (used alone (no ADA), 7 days hypoxia) is given as “maintain cell population significantly lower than the no treatment control”. Besides, the “cellular metabolism under hypoxia” value in data set [7] (treated with ADA) was “failed to reduce cellular metabolism and showed increased metabolic activity when compared to control”; in data set [7] (used alone (no ADA)) it was “minimized cellular metabolism”. Besides, in data set [7] (used alone (no ADA)), the “metabolism after drug and hypoxia removed” value was “recovered normal metabolism”.
